Laboratory results from PubChem BioAssay AID330 (DTP/NCI, 2004).
Several values for one entry are separate records, joined by “and”; a condition that tells them apart may be missing. Equal entries are not always repeated. Inconclusive results and toxic doses are left out. Rule for the calls: active = survival T/C of 150% or more; inactive = T/C below 125% in these data.

Test system: P388 leukemia ip, CD2F1 mice, survival T/C
Experiment: NCI In Vivo Anticancer Drug Screen. Data for tumor model P388 Leukemia (intraperitoneal) in CD2F1 (CDF1) mice
Details: endpoint: median survival time, higher = longer survival
Summary of the method: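 Mice carrying the transplanted tumor received test compound or vehicle. Survival was recorded in each group, and the value is the treated-group measurement divided by that of the vehicle-treated control group.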

[1] = dose: 50.0 mg/kg/injection, schedule: Q01DX005 (ip), vehicle: saline with Tween-80
[2] = dose: 100.0 mg/kg/injection, schedule: Q01DX005 (ip), vehicle: saline with Tween-80
[3] = dose: 200.0 mg/kg/injection, schedule: Q01DX005 (ip), vehicle: saline with Tween-80
[4] = dose: 50.0 mg/kg/injection, schedule: Q01DX005 (ip), vehicle: Klucel (hydroxypropylcellulose) (HPC)
[5] = dose: 100.0 mg/kg/injection, schedule: Q01DX005 (ip), vehicle: Klucel (hydroxypropylcellulose) (HPC)
[6] = dose: 200.0 mg/kg/injection, schedule: Q01DX005 (ip), vehicle: Klucel (hydroxypropylcellulose) (HPC)
[7] = dose: 60.0 mg/kg/injection, schedule: Q01DX005 (ip), vehicle: saline with Tween-80
[8] = dose: 120.0 mg/kg/injection, schedule: Q01DX005 (ip), vehicle: saline with Tween-80
[9] = dose: 240.0 mg/kg/injection, schedule: Q01DX005 (ip), vehicle: saline with Tween-80
[10] = dose: 100.0 mg/kg/injection, schedule: Q01DX001 (ip), vehicle: Klucel (hydroxypropylcellulose) (HPC)
[11] = dose: 25.0 mg/kg/injection, schedule: Q01DX005 (ip), vehicle: saline with Tween-80

Measured: T/C

CN(C)CC1CCC2=C(C1=O)C(c1ccc(Cl)c(Cl)c1)C1=C(CCC(CN(C)C)C1=O)O2 (centres undefined)
inactive: dose: 60.0 mg/kg/injection, schedule: Q01DX005 (ip), vehicle: suspension in saline 100 % of control | dose: 120.0 mg/kg/injection, schedule: Q01DX005 (ip), vehicle: suspension in saline 106 % of control | dose: 240.0 mg/kg/injection, schedule: Q01DX005 (ip), vehicle: suspension in saline 99 % of control

CCCCCCC([Se]C)C(O)(CCC)CCC (centres undefined)
inactive: dose: 25.0 mg/kg/injection, schedule: Q04DX003 (ip), vehicle: saline with Tween-80 100 % of control | dose: 50.0 mg/kg/injection, schedule: Q04DX003 (ip), vehicle: saline with Tween-80 100 % of control | dose: 100.0 mg/kg/injection, schedule: Q04DX003 (ip), vehicle: saline with Tween-80 91 % of control

CC1CC(Nc2ccc(NC3=CC(=O)OC(C)C3)cc2)=CC(=O)O1 (centres undefined)
inactive: [1] 94 % of control | [2] 92 % of control | [3] 90 % of control

NC(=O)N/N=C1\CSCc2ccccc21
inactive: dose: 25.0 mg/kg/injection, schedule: Q01DX009 (ip), vehicle: other 93 % of control | dose: 50.0 mg/kg/injection, schedule: Q01DX009 (ip), vehicle: other 92 % of control | dose: 100.0 mg/kg/injection, schedule: Q01DX009 (ip), vehicle: other 93 % of control | dose: 200.0 mg/kg/injection, schedule: Q01DX009 (ip), vehicle: other 99 % of control | dose: 400.0 mg/kg/injection, schedule: Q01DX009 (ip), vehicle: other 117 % of control

[O-][n+]1nc(Cl)nc2ccccc21
inactive: dose: 10.0 mg/kg/injection, schedule: Q01DX009 (ip), vehicle: Klucel (hydroxypropylcellulose) (HPC) 105 % of control | dose: 20.0 mg/kg/injection, schedule: Q01DX009 (ip), vehicle: Klucel (hydroxypropylcellulose) (HPC) 107 % of control

CC1CC2OC(/C=C/C=C/C=C/C=C\C=C\C(O)=C3/C(=O)C(C(C)C)N(C)C3=O)C(O)C2O1 (centres undefined)
inactive: dose: 310.0 micrograms/kg/injection, schedule: Q01DX005 (ip), vehicle: saline with Tween-80 99 % of control | dose: 625.0 micrograms/kg/injection, schedule: Q01DX005 (ip), vehicle: saline with Tween-80 94 % of control | dose: 1250.0 micrograms/kg/injection, schedule: Q01DX005 (ip), vehicle: saline with Tween-80 101 % of control | dose: 2500.0 micrograms/kg/injection, schedule: Q01DX005 (ip), vehicle: saline with Tween-80 99 % of control | dose: 5000.0 micrograms/kg/injection, schedule: Q01DX005 (ip), vehicle: saline with Tween-80 99 % of control

CC(CO)c1cc2c(cc1O)[C@@]1(C)CCCC(C)(C)[C@@H]1CC2 (some centres undefined)
inactive: dose: 25.0 mg/kg/injection, schedule: Q01DX005 (ip), vehicle: Klucel (hydroxypropylcellulose) (HPC) 99 % of control | [4] 102 % of control | [5] 89 % of control | [6] 89 % of control and 93 % of control | dose: 400.0 mg/kg/injection, schedule: Q01DX005 (ip), vehicle: Klucel (hydroxypropylcellulose) (HPC) 88 % of control

O=C(Cn1ccnc1[N+](=O)[O-])NCCO
inactive: dose: 12.5 mg/kg/injection, schedule: Q01DX009 (ip), vehicle: water 113 % of control | dose: 25.0 mg/kg/injection, schedule: Q01DX009 (ip), vehicle: water 105 % of control | dose: 50.0 mg/kg/injection, schedule: Q01DX009 (ip), vehicle: water 101 % of control | dose: 100.0 mg/kg/injection, schedule: Q01DX009 (ip), vehicle: water 105 % of control | dose: 200.0 mg/kg/injection, schedule: Q01DX009 (ip), vehicle: water 114 % of control

COc1ccc(C2c3cc(O)c(OC)cc3Oc3cc(OC)c(O)cc32)cc1
inactive: [4] 87 % of control | [5] 94 % of control | [6] 96 % of control

C=CCNC(=S)N/N=C(/c1ccccn1)C(C)C
inactive: [1] 103 % of control | [2] 109 % of control

Cc1ccccc1NC(=O)C1C(=O)N(c2ccccc2C)C(=O)/C1=N/O (centres undefined)
inactive: [7] 99 % of control | [8] 97 % of control | [9] 94 % of control

Clc1ccc(-n2ccc(=N/N=C/c3ccc(Cl)c(Cl)c3)cc2)cc1
inactive: dose: 25.0 mg/kg/injection, schedule: Q01DX001 (ip), vehicle: Klucel (hydroxypropylcellulose) (HPC) 100 % of control | dose: 50.0 mg/kg/injection, schedule: Q01DX001 (ip), vehicle: Klucel (hydroxypropylcellulose) (HPC) 100 % of control | [10] 100 % of control and 96 % of control

CC(=O)N(C(C)=O)/C(=C/c1cn(C(C)=O)c2ccccc12)C(=O)c1ccc(C)cc1
inactive: dose: 100.0 mg/kg/injection, schedule: Q01DX001 (ip), vehicle: saline with Tween-80 105 % of control | dose: 200.0 mg/kg/injection, schedule: Q01DX001 (ip), vehicle: saline with Tween-80 104 % of control | dose: 400.0 mg/kg/injection, schedule: Q01DX001 (ip), vehicle: saline with Tween-80 98 % of control

[S-]c1n[n+](-c2ccccc2)c(-c2ccccc2)s1
inactive: dose: 50.0 mg/kg/injection, schedule: Q01DX009 (ip), vehicle: saline with Tween-80 100 % of control | dose: 100.0 mg/kg/injection, schedule: Q01DX009 (ip), vehicle: saline with Tween-80 100 % of control | dose: 200.0 mg/kg/injection, schedule: Q01DX009 (ip), vehicle: saline with Tween-80 93 % of control

CN(Cc1nc(-c2ccccc2)no1)c1nc(-c2ccccc2)no1
inactive: [10] 97 % of control | dose: 200.0 mg/kg/injection, schedule: Q01DX001 (ip), vehicle: Klucel (hydroxypropylcellulose) (HPC) 109 % of control | dose: 400.0 mg/kg/injection, schedule: Q01DX001 (ip), vehicle: Klucel (hydroxypropylcellulose) (HPC) 95 % of control

Cc1c(O)ccc(N=O)c1O
inactive: dose: 6.25 mg/kg/injection, schedule: Q01DX005 (ip), vehicle: saline with Tween-80 98 % of control | dose: 12.5 mg/kg/injection, schedule: Q01DX005 (ip), vehicle: saline with Tween-80 94 % of control | [11] 90 % of control | [1] 93 % of control

CC12CCC(C=C1N1CCOCC1)C(C)(C)O2 (centres undefined)
inactive: [11] 97 % of control | dose: 25.0 mg/kg/injection, schedule: Q01DX005 (ip), vehicle: saline 100 % of control | [1] 103 % of control | dose: 50.0 mg/kg/injection, schedule: Q01DX005 (ip), vehicle: saline 102 % of control | [2] 94 % of control | dose: 100.0 mg/kg/injection, schedule: Q01DX005 (ip), vehicle: saline 100 % of control | [3] 94 % of control | dose: 200.0 mg/kg/injection, schedule: Q01DX005 (ip), vehicle: saline 99 % of control

O=C(O)c1cc(S(=O)(=O)F)c(Cl)cc1Cl
inactive: [7] 119 % of control | [8] 104 % of control | [9] 104 % of control

CN=C(N)N/N=C/c1c2ccccc2cc2ccccc12
inactive: dose: 25.0 mg/kg/injection, schedule: Q04DX002 (ip), vehicle: saline with Tween-80 115 % of control | dose: 50.0 mg/kg/injection, schedule: Q04DX002 (ip), vehicle: saline with Tween-80 111 % of control | dose: 100.0 mg/kg/injection, schedule: Q04DX002 (ip), vehicle: saline with Tween-80 114 % of control
